One assay has as its target Carbonic anhydrase 9 (Homo sapiens, UniProt Q16790). The experiment in a line: Inhibition of GST-tagged recombinant carbonic anhydrase-9 catalytic domain (unknown origin).
Another assay addresses Carbonic anhydrase 2 (Homo sapiens, UniProt P00918). Briefly: Inhibition of full length carbonic anhydrase-2 in human erythrocytes. In kind it is cell-based.
The next assay addresses Carbonic anhydrase 1 (Homo sapiens, UniProt P00915). The experiment in a line: Inhibition of full length carbonic anhydrase-1 in human erythrocytes. The class given is cell-based.

SMILES strings stand for the structures.

Sequence of Carbonic anhydrase 1 (P00915 whole entry): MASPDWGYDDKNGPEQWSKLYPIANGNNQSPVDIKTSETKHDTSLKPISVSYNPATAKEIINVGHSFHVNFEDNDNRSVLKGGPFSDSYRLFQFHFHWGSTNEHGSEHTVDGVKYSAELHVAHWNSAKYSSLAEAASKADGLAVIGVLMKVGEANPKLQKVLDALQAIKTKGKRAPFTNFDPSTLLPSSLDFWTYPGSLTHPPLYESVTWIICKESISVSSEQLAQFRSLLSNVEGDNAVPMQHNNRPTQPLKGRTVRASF

With `CC1=NN(c2ccc(S(N)(=O)=O)cc2)C(=O)/C1=C\C=C\c1ccccc1`, the IC50 – broadly, the point on the concentration scale where inhibition reaches its midpoint – at Carbonic anhydrase 9 turned out to be 0.0191 µM.
With `NS(=O)(=O)c1ccc(NC(=S)NC(=O)c2ccccc2)cc1`, on Carbonic anhydrase 9, the IC50 was 0.00286 µM.
For the molecule `NS(=O)(=O)c1ccc(CNC2CC(=O)N(c3cccc(Br)c3)C2=O)cc1` (stereo not given), the IC50 on Carbonic anhydrase 9 is 0.199 µM.
Same read-out and setting: then `NS(=O)(=O)c1ccc(NC(=O)c2cccc(N3C(=O)CCC3=O)c2)cc1`, with 0.0216 µM.
Turning to `CC1=NN(c2cccc(S(N)(=O)=O)c2)C(=O)C1`, the IC50 on Carbonic anhydrase 9 was 0.588 µM; at Carbonic anhydrase 2 it was 0.809 µM; at Carbonic anhydrase 1, 1.19 µM.
On to `COc1ccc(CNc2ccc(S(N)(=O)=O)cc2)cc1OC`, for which the IC50 on Carbonic anhydrase 9 was determined as 0.342 µM.
For `NS(=O)(=O)c1cc(C(=O)NCCOc2ccccc2)c(Cl)cc1Cl`, the IC50 at Carbonic anhydrase 9 came out at 0.0104 µM; at Carbonic anhydrase 2, 0.0106 µM; at Carbonic anhydrase 1, 0.0167 µM.
Consider `NS(=O)(=O)c1ccc(/N=C2/NC(=O)/C(=C/c3cc(O)ccc3Br)S2)cc1`, for which the IC50 on Carbonic anhydrase 9 is 0.00453 µM.
As for `NS(=O)(=O)c1ccc(CCNCc2cccc3ccccc23)cc1`, the IC50 stood at 0.0188 µM on Carbonic anhydrase 9, 0.153 µM at Carbonic anhydrase 2 and 0.173 µM against Carbonic anhydrase 1.
As to `Cc1ccc(N2NC(=O)/C(=C/c3cccn3-c3ccc(S(N)(=O)=O)cc3)C2=O)cc1`, the IC50 on Carbonic anhydrase 9 was determined as 0.0149 µM.
Turning to `COc1ccc(Cl)cc1CNCCc1ccc(S(N)(=O)=O)cc1`, the IC50 at Carbonic anhydrase 9 came to 0.0685 µM.
Same read-out and setting: then `NS(=O)(=O)c1cccc(NS(=O)(=O)c2ccc3c4c(cccc24)C(=O)N3)c1`, with 0.0284 µM.
On to `NS(=O)(=O)c1ccc(-n2cccc2/C=C2/C(=O)NN(c3ccc(F)cc3)C2=O)cc1`, for which the values for the IC50 at Carbonic anhydrase 9 and against Carbonic anhydrase 2 were 0.00311 µM and 0.042 µM, respectively.

For the origin of these results see ChEMBL document CHEMBL2390891, “Discovery of new potent inhibitors for carbonic anhydrase IX by structure-based virtual screening” (Bioorg Med Chem Lett, 2013).
